Source: ChEMBL document CHEMBL1201862, “PubChem BioAssay data set” (2004)
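Results reflect a 48-hour exposure of cells in 96-well plates to compound at five concentrations. At the GI50, growth is halved.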 Active and inactive are the calls of the source. No stated cut-off is given here; in the data, active = GI50 up to about 1.1 µM and inactive = higher.

Columns and labels:
Assay in all cases: inhibition of tumour cell growth, NCI panel, 48 h
786-0 = test system: 786-0
A498 = test system: A498
A549 = test system: A549
ACHN = test system: ACHN
BT-549 = test system: BT-549
CCRF-CEM = test system: CCRF-CEM
COLO 205 = test system: COLO 205
DU-145 = test system: DU-145
EKVX = test system: EKVX
HCC 2998 = test system: HCC 2998
HCT-116 = test system: HCT-116
HCT-15 = test system: HCT-15
HL-60 = test system: HL-60
HOP-62 = test system: HOP-62
HOP-92 = test system: HOP-92
HT-29 = test system: HT-29
Hs-578T = test system: Hs-578T
IGROV-1 = test system: IGROV-1
K562 = test system: K562
KM12 = test system: KM12
LOX IMVI = test system: LOX IMVI
M14 = test system: M14
MCF7 = test system: MCF7
MDA-MB-231 = test system: MDA-MB-231
MDA-MB-435 = test system: MDA-MB-435
MDA-N = test system: MDA-N
MOLT-4 = test system: MOLT-4
Malme-3M = test system: Malme-3M
NCI-H226 = test system: NCI-H226
NCI-H23 = test system: NCI-H23
NCI-H460 = test system: NCI-H460
NCI-H522 = test system: NCI-H522
NCI/ADR-RES = test system: NCI/ADR-RES
OVCAR-3 = test system: OVCAR-3
OVCAR-4 = test system: OVCAR-4
OVCAR-5 = test system: OVCAR-5
OVCAR-8 = test system: OVCAR-8
PC-3 = test system: PC-3
RPMI-8226 = test system: RPMI-8226
RXF 393 = test system: RXF 393
SF-268 = test system: SF-268
SF-295 = test system: SF-295
SF-539 = test system: SF-539
SK-MEL-28 = test system: SK-MEL-28
SK-MEL-2 = test system: SK-MEL-2
SK-MEL-5 = test system: SK-MEL-5
SK-OV-3 = test system: SK-OV-3
SN12C = test system: SN12C
SNB-19 = test system: SNB-19
SNB-75 = test system: SNB-75
SR = test system: SR
SW-620 = test system: SW-620
T47D = test system: T47D
TK-10 = test system: TK-10
U-251 = test system: U-251
UACC-257 = test system: UACC-257
UACC-62 = test system: UACC-62
UO-31 = test system: UO-31

Structure (SMILES): COC(=O)CCc1cc(OC)c2c(c1)[C@H](C(=O)OC)[C@@H](c1ccc(O)c(OC)c1)O2
- GI50 (786-0): 46.3 µM (inactive)
- GI50 (A498): 31.5 µM (inactive)
- GI50 (A549): 39.5 µM (inactive)
- GI50 (ACHN): 86.5 µM (inactive)
- GI50 (BT-549): 44.8 µM (inactive)
- GI50 (CCRF-CEM): 33.8 µM (inactive)
- GI50 (COLO 205): 41.2 µM (inactive)
- GI50 (DU-145): > 100 µM (inactive)
- GI50 (EKVX): 58.2 µM (inactive)
- GI50 (HCC 2998): 21.4 µM (inactive)
- GI50 (HCT-116): 35.5 µM (inactive)
- GI50 (HCT-15): 32.7 µM
- GI50 (HL-60): 15.5 µM (inactive)
- GI50 (HOP-62): 77.1 µM (inactive)
- GI50 (HOP-92): > 100 µM (inactive)
- GI50 (HT-29): 36.2 µM (inactive)
- GI50 (Hs-578T): 38.4 µM (inactive)
- GI50 (IGROV-1): 61.8 µM (inactive)
- GI50 (K562): 13.4 µM (inactive)
- GI50 (KM12): 30.6 µM (inactive)
- GI50 (LOX IMVI): 57.5 µM (inactive)
- GI50 (M14): 38.3 µM (inactive)
- GI50 (MCF7): 49.2 µM (inactive)
- GI50 (MDA-MB-231): 50.6 µM (inactive)
- GI50 (MDA-MB-435): 15.1 µM (inactive)
- GI50 (MDA-N): 17.7 µM (inactive)
- GI50 (MOLT-4): 24.7 µM (inactive)
- GI50 (Malme-3M): 29.9 µM (inactive)
- GI50 (NCI-H226): > 100 µM (inactive)
- GI50 (NCI-H23): 38.5 µM (inactive)
- GI50 (NCI-H460): 37.8 µM (inactive)
- GI50 (NCI-H522): 38.3 µM (inactive)
- GI50 (NCI/ADR-RES): 40.9 µM (inactive)
- GI50 (OVCAR-3): 47.2 µM (inactive)
- GI50 (OVCAR-4): 84.1 µM (inactive)
- GI50 (OVCAR-5): > 100 µM (inactive)
- GI50 (OVCAR-8): 78.2 µM (inactive)
- GI50 (PC-3): 91.8 µM (inactive)
- GI50 (RPMI-8226): 17.6 µM (inactive)
- GI50 (RXF 393): 55.8 µM (inactive)
- GI50 (SF-268): 52.6 µM (inactive)
- GI50 (SF-295): 47.1 µM (inactive)
- GI50 (SF-539): 48.2 µM (inactive)
- GI50 (SK-MEL-28): 41.9 µM (inactive)
- GI50 (SK-MEL-2): 33.1 µM (inactive)
- GI50 (SK-MEL-5): 35 µM (inactive)
- GI50 (SK-OV-3): 42.8 µM (inactive)
- GI50 (SN12C): 56.9 µM (inactive)
- GI50 (SNB-19): 51.9 µM (inactive)
- GI50 (SNB-75): 43.3 µM (inactive)
- GI50 (SR): 1.43 µM (inactive)
- GI50 (SW-620): 47.4 µM (inactive)
- GI50 (T47D): 55.5 µM (inactive)
- GI50 (TK-10): > 100 µM (inactive)
- GI50 (U-251): 38.4 µM (inactive)
- GI50 (UACC-257): > 100 µM (inactive)
- GI50 (UACC-62): 39.8 µM (inactive)
- GI50 (UO-31): 52.1 µM (inactive)
